We go through 27 molecules from US20240425479A1, “HALO-SUBSTITUTED AMINO AZA-HETEROARYL COMPOUNDS AS INHIBITORS OF THE HAEMATOPOIETIC PROGENITOR KINASE 1 (HPK1)” (priority 2021, published 2024).

For the experiment, the target named is T1, Recombinant (1-346) HPK1 (h) (Homo sapiens, UniProt Q92918).
T1 construct: Recombinant (1-346) HPK1 (h) is incubated with 8 mM MOPS pH 7.0
T1 sequence (Q92918 1-346): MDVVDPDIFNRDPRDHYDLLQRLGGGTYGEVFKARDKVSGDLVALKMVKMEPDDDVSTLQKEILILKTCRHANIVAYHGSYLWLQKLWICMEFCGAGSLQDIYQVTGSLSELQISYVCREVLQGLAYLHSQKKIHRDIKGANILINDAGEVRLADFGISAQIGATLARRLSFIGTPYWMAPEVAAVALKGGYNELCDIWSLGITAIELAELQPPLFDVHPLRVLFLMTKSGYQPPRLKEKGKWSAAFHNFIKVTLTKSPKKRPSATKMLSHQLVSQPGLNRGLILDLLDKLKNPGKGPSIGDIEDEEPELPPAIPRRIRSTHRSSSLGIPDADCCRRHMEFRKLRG
The experiment is described as follows: HPK1 human STE kinase enzymatic radiometric assay. It is filed as biochemical. Conditions: read-out: HPK1 IC50 nM Range. In a few lines: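 Compounds in 3-fold, 9-point serial dilution; kinase (residues 1-346) phosphorylates myelin basic protein (0.33 mg/mL) using [gamma-33P]-ATP at pH 7.0 (MOPS, EDTA, Mg acetate) for 40 min, room temperature. Acid-quenched mixture filtered onto P30 mats; incorporated radioactivity read by scintillation counting.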
The IC50 is the concentration that gives 50% inhibition. Take `COc1ccc(-c2nc(-c3ccc4c(c3)CCNC4=O)c(N)nc2F)cc1C(C)N(C)C` (stereo not drawn) [Example I-290, 6-(3-amino-6-(3-(1-(dimethylamino)ethyl)-4-methoxyphenyl)-5-fluoropyrazin-2-yl)-3,4-dihydroisoquinolin-1(2H)-one]: the IC50 lay within 0.1 to 10 nM.

With `C[C@@H]1CCCN1Cc1cc(-c2nc(-c3ccc4c(=O)[nH]cc(Cl)c4c3)c(N)nc2F)ccc1C1CCOCC1` [Example I-227, (R)-6-(3-amino-5-fluoro-6-(3-((2-methylpyrrolidin-1-yl)methyl)-4-(tetrahydro-2H-pyran-4-yl)phenyl)pyrazin-2-yl)-4-chloroisoquinolin-1(2H)-one], the IC50 was in the range of 11 to 100 nM.

For `Nc1nc(F)c(-c2ccc(N3CCOCC3)c(CN3CCCC3)c2)nc1-c1ccc2c(=O)[nH]cc(F)c2c1` [Example I-200, 6-(3-amino-5-fluoro-6-(4-morpholino-3-(pyrrolidin-1-ylmethyl)phenyl)pyrazin-2-yl)-4-fluoroisoquinolin-1(2H)-one], the IC50 was in the range of 0.1 to 10 nM.

Turning to `Nc1nc(F)c(-c2ccc(OC3CCOCC3)c(CN3CCC3)c2)nc1-c1ccc2c(c1)CCNC2=O` [Example I-208, 6-(3-amino-6-(3-(azetidin-1-ylmethyl)-4-((tetrahydro-2H-pyran-4-yl)oxy)phenyl)-5-fluoropyrazin-2-yl)-3,4-dihydroisoquinolin-1(2H)-one], the 50% inhibitory concentration (IC50) lay in the range of 11 to 100 nM.

In the case of `Nc1nc(F)c(-c2ccc(N3CCOCC3)c(CN3CCCCC3)c2)nc1-c1ccc2c(c1)CCNC2=O` [Example I-185, 6-(3-amino-5-fluoro-6-(4-morpholino-3-(piperidin-1-ylmethyl)phenyl)pyrazin-2-yl)-3,4-dihydroisoquinolin-1(2H)-one], the IC50 was in the range of 11 to 100 nM.

Turning to `CN(C)Cc1c(N2CCOCC2)ccc(-c2nc(-c3cc(F)c4c(c3)CCNC4=O)c(N)nc2F)c1F` [Example I-242, 6-(3-amino-6-(3-((dimethylamino)methyl)-2-fluoro-4-morpholinophenyl)-5-fluoropyrazin-2-yl)-8-fluoro-3,4-dihydroisoquinolin-1(2H)-one], the half-inhibitory concentration (IC50) lay in the range of 11 to 100 nM.

As to `Nc1nc(F)c(-c2ccc(N3CCOCC3)c(CN3CCC3)c2)nc1-c1ccc2c(=O)[nH]cc(F)c2c1` [Example I-199, 6-(3-amino-6-(3-(azetidin-1-ylmethyl)-4-morpholinophenyl)-5-fluoropyrazin-2-yl)-4-fluoroisoquinolin-1(2H)-one], the IC50 was in the range of 0.1 to 10 nM.

On to `CCN(C)Cc1c(N2CCOCC2)ccc(-c2nc(-c3cc4c(cc3F)C(=O)NCC4)c(N)nc2F)c1F` [Example I-246, 6-(3-amino-6-(3-((ethyl(methyl)amino)methyl)-2-fluoro-4-morpholinophenyl)-5-fluoropyrazin-2-yl)-7-fluoro-3,4-dihydroisoquinolin-1(2H)-one], for which the 50% inhibitory concentration (IC50) is 11 to 100 nM.

On to `Cc1nc2cc(-c3nc(-c4ccc(N5CCOCC5)c(CN(C)C)c4)c(F)nc3N)ccc2c(=O)[nH]1` [Example I-77, 7-(3-amino-6-(3-((dimethylamino)methyl)-4-morpholinophenyl)-5-fluoropyrazin-2-yl)-2-methylquinazolin-4(3H)-one], for which the IC50 was 11 to 100 nM.

Take `CN(C)[C@@H]1COc2ccc(-c3nc(-c4ccc5c(=O)[nH]cc(Cl)c5c4)c(N)nc3F)cc21` [Example I-252, (S)-6-(3-amino-6-(3-(dimethylamino)-2,3-dihydrobenzofuran-5-yl)-5-fluoropyrazin-2-yl)-4-chloroisoquinolin-1(2H)-one]: the IC50 fell in the range of 0.1 to 10 nM.

On to `CN(C)Cc1cc(-c2nc(-c3cc4c(F)c[nH]c(=O)c4cc3F)c(N)nc2F)ccc1C1CCOCC1` [Example I-143, 6-(3-amino-6-(3-((dimethylamino)methyl)-4-(tetrahydro-2H-pyran-4-yl)phenyl)-5-fluoropyrazin-2-yl)-4,7-difluoroisoquinolin-1(2H)-one], for which the IC50 lay within 0.1 to 10 nM.

On to `Cc1c[nH]c(=O)c2c(F)cc(-c3nc(-c4ccc(N5CCN(C(C)C)CC5)cc4)c(F)nc3N)cc12` [Example I-166, 6-(3-amino-5-fluoro-6-(4-(4-isopropylpiperazin-1-yl)phenyl)pyrazin-2-yl)-8-fluoro-4-methylisoquinolin-1(2H)-one], for which the IC50 lay within 0.1 to 10 nM.

`C[C@@H]1CN(c2ccc(-c3nc(-c4ccc5c(c4)CCNC5=O)c(N)nc3F)cc2CN(C)C)C[C@H](C)O1` [Example I-198, 6-(3-amino-6-(3-((dimethylamino)methyl)-4-((2R,6S)-2,6-dimethylmorpholino)phenyl)-5-fluoropyrazin-2-yl)-3,4-dihydroisoquinolin-1(2H)-one]: the IC50 is 0.1 to 10 nM.

For the molecule `C[C@@H]1CN(c2ccc(-c3nc(-c4cc5c(cc4F)C(=O)NCC5)c(N)nc3F)cc2)C[C@H](C)N1C` [Example I-58, 6-(3-amino-5-fluoro-6-(4-((3R,5S)-3,4,5-trimethylpiperazin-1-yl)phenyl)pyrazin-2-yl)-7-fluoro-3,4-dihydroisoquinolin-1(2H)-one], the IC50 lay within 0.1 to 10 nM.

As to `CO[C@H]1CCN(Cc2cc(-c3nc(-c4cc(F)c5c(c4)CCNC5=O)c(N)nc3F)ccc2N2CCOCC2)C1` [Example I-158, (S)-6-(3-amino-5-fluoro-6-(3-((3-methoxypyrrolidin-1-yl)methyl)-4-morpholinophenyl)pyrazin-2-yl)-8-fluoro-3,4-dihydroisoquinolin-1(2H)-one], the IC50 is 0.1 to 10 nM.

Consider `CN1CCN(c2ccc(-c3nc(-c4ccc5c(c4)CCNC5=O)c(N)nc3F)cc2)CC1` [Example I-41, 6-(3-amino-5-fluoro-6-(4-(4-methylpiperazin-1-yl)phenyl)pyrazin-2-yl)-3,4-dihydroisoquinolin-1(2H)-one], for which the IC50 is 0.1 to 10 nM.

Take `Nc1nc(F)c(-c2ccc(N3CCOCC3)cn2)nc1-c1ccc2c(c1)CCNC2=O` [Example I-201, 6-(3-amino-5-fluoro-6-(5-morpholinopyridin-2-yl)pyrazin-2-yl)-3,4-dihydroisoquinolin-1(2H)-one]: the IC50 fell in the range of 11 to 100 nM.

For the molecule `Cc1c[nH]c(=O)c2ccc(-c3nc(-c4ccc([C@]56C[C@H]5CN(C)C6)cc4)c(F)nc3N)cc12` [Example I-75, 6-(3-amino-5-fluoro-6-(4-((1S,5R)-3-methyl-3-azabicyclo[3.1.0]hexan-1-yl)phenyl)pyrazin-2-yl)-4-methylisoquinolin-1(2H)-one], the IC50 lay within 11 to 100 nM.

Take `CN(C)Cc1cccc(-c2nc(-c3ccc4c(c3)CCNC4=O)c(N)nc2F)c1` [Example I-277, 6-(3-amino-6-(3-((dimethylamino)methyl)phenyl)-5-fluoropyrazin-2-yl)-3,4-dihydroisoquinolin-1(2H)-one]: the IC50 was in the range of 11 to 100 nM.

For `Nc1nc(F)c(-c2ccc(C3CCOCC3)c(CN3CCCC3)c2)nc1-c1cc(F)c2c(c1)CCNC2=O` [Example I-149, 6-(3-amino-5-fluoro-6-(3-(pyrrolidin-1-ylmethyl)-4-(tetrahydro-2H-pyran-4-yl)phenyl)pyrazin-2-yl)-8-fluoro-3,4-dihydroisoquinolin-1(2H)-one], the IC50 fell in the range of 0.1 to 10 nM.

In the case of `COC1CN(Cc2cc(-c3nc(-c4cc(F)c5c(c4)CCNC5=O)c(N)nc3F)ccc2N2CCOCC2)C1` [Example I-192, 6-(3-amino-5-fluoro-6-(3-((3-methoxyazetidin-1-yl)methyl)-4-morpholinophenyl)pyrazin-2-yl)-8-fluoro-3,4-dihydroisoquinolin-1(2H)-one], the IC50 fell in the range of 0.1 to 10 nM.

`CN(C)[C@@H]1CCOc2ccc(-c3nc(-c4ccc5c(=O)[nH]ccc5c4)c(N)nc3F)cc21` [Example I-286, (R)-6-(3-amino-6-(4-(dimethylamino)chroman-6-yl)-5-fluoropyrazin-2-yl)isoquinolin-1(2H)-one]: the IC50 was in the range of 11 to 100 nM.

For the molecule `Cc1[nH]c(=O)c2ccc(-c3nc(-c4ccc(N5CC6(CN(C)CCO6)C5)cc4)c(F)nc3N)cc2c1F` [Example I-123, 6-(3-amino-5-fluoro-6-(4-(8-methyl-5-oxa-2,8-diazaspiro[3.5]nonan-2-yl)phenyl)pyrazin-2-yl)-4-fluoro-3-methylisoquinolin-1(2H)-one], the IC50 lay within 11 to 100 nM.

With `CO[C@H]1CCN(Cc2cc(-c3nc(-c4ccc5c(c4)CCNC5=O)c(N)nc3F)ccc2N2CCOCC2)C1` [Example I-156, (S)-6-(3-amino-5-fluoro-6-(3-((3-methoxypyrrolidin-1-yl)methyl)-4-morpholinophenyl)pyrazin-2-yl)-3,4-dihydroisoquinolin-1(2H)-one], the IC50 was in the range of 0.1 to 10 nM.

With `Nc1nc(F)c(-c2ccc(OC3CCOCC3)c(CN3CCC3)c2)nc1-c1cc2c(cc1F)C(=O)NCC2` [Example I-209, 6-(3-amino-6-(3-(azetidin-1-ylmethyl)-4-((tetrahydro-2H-pyran-4-yl)oxy)phenyl)-5-fluoropyrazin-2-yl)-7-fluoro-3,4-dihydroisoquinolin-1(2H)-one], the IC50 is 11 to 100 nM.

Consider `C[C@H]1CCCN1Cc1cc(-c2nc(-c3ccc4c(c3)C(F)(F)CNC4=O)c(N)nc2F)ccc1C1CCOCC1` [Example I-233, (S)-6-(3-amino-5-fluoro-6-(3-((2-methylpyrrolidin-1-yl)methyl)-4-(tetrahydro-2H-pyran-4-yl)phenyl)pyrazin-2-yl)-4,4-difluoro-3,4-dihydroisoquinolin-1(2H)-one], for which the IC50 lay in the range of 0.1 to 10 nM.

Regarding `Cc1nc2cc(-c3nc(-c4ccc([C@]56C[C@H]5CN(C)C6)cc4)c(F)nc3N)ccc2c(=O)[nH]1` [Example I-74, 7-(3-amino-5-fluoro-6-(4-((1S,5R)-3-methyl-3-azabicyclo[3.1.0]hexan-1-yl)phenyl)pyrazin-2-yl)-2-methylquinazolin-4(3H)-one], the IC50 is 11 to 100 nM.
